Laboratory results: PMC7055873 (PLoS ONE, 2020)
“Also recorded” adds a separate entry of the source.

Biological target: H275Y mutant A(H1N1)pdm09 virus, neuraminidase (NA) (Influenza A virus, UniProt A0A0X9QTS2, H275Y)

SMILES: CCOC(=O)C1=C[C@@H](OC(CC)CC)[C@H](NC(C)=O)[C@@H](N)C1 [Oseltamivir, oseltamivir]
- susceptibility interpretation: highly reduced inhibition; also recorded: high reduced inhibition

SMILES: CCC(CC)[C@H](NC(C)=O)[C@@H]1[C@H](O)[C@@H](C(=O)O)C[C@H]1N=C(N)N [Peramivir, peramivir]
- IC50: 21.9 nM
- susceptibility interpretation: highly reduced inhibition; also recorded: high reduced inhibition
